Measured values as given in the supplement of paper PMC10307832.

What was measured:
Experiment in all cases: relative viability (nuclei count vs DMSO), 5 days (fraction); higher = more cells survive
17-AAG + Vorinostat = compound: C=CCNC1=C2C[C@@H](C)C[C@H](OC)[C@H](O)[C@@H](C)/C=C(\C)[C@H](OC(N)=O)[C@@H](OC)/C=C\C=C(/C)C(=O)NC(=CC1=O)C2=O [17-AAG] + O=C(CCCCCCC(=O)Nc1ccccc1)NO [Vorinostat] (partner 1 µM)
Method in brief: (§1)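 A single step with final 0.05% Triton X-100, 1% formaldehyde and 1 ug/ml Hoechst fixed the cells and stained nuclei 5 days after treatment. Lung cancer cell lines in 1536-well plates had been treated by pin tool the day after seeding with one drug alone or a fixed anchor-drug dose plus five library-drug doses (not always all listed) in √10 steps, and nuclei were counted on 4× images. Relative viability is the ratio of nuclei in treated wells to nuclei in vehicle wells, taken as the median of duplicate plates.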

17-AAG + Navitoclax = compound: C=CCNC1=C2C[C@@H](C)C[C@H](OC)[C@H](O)[C@@H](C)/C=C(\C)[C@H](OC(N)=O)[C@@H](OC)/C=C\C=C(/C)C(=O)NC(=CC1=O)C2=O [17-AAG] + CC1(C)CCC(c2ccc(Cl)cc2)=C(CN2CCN(c3ccc(C(=O)NS(=O)(=O)c4ccc(N[C@H](CCN5CCOCC5)CSc5ccccc5)c(S(=O)(=O)C(F)(F)F)c4)cc3)CC2)C1 [Navitoclax] (partner 0.5 µM)
Method in brief: as §1

17-AAG + Linsitinib = compound: C=CCNC1=C2C[C@@H](C)C[C@H](OC)[C@H](O)[C@@H](C)/C=C(\C)[C@H](OC(N)=O)[C@@H](OC)/C=C\C=C(/C)C(=O)NC(=CC1=O)C2=O [17-AAG] + C[C@]1(O)C[C@@H](c2nc(-c3ccc4ccc(-c5ccccc5)nc4c3)c3c(N)nccn32)C1 [Linsitinib] (partner 1 µM)
Method in brief: as §1

17-AAG + Pemetrexed = compound: C=CCNC1=C2C[C@@H](C)C[C@H](OC)[C@H](O)[C@@H](C)/C=C(\C)[C@H](OC(N)=O)[C@@H](OC)/C=C\C=C(/C)C(=O)NC(=CC1=O)C2=O [17-AAG] + Nc1nc2[nH]cc(CCc3ccc(C(=O)N[C@@H](CCC(=O)O)C(=O)O)cc3)c2c(=O)[nH]1 [Pemetrexed] (partner 0.2 µM)
Method in brief: as §1

Row | Cell Line | relative viability (17-AAG + Vorinostat; first compound 0.00128 µM) | relative viability (17-AAG + Vorinostat; first compound 0.004048 µM) | relative viability (17-AAG + Vorinostat; first compound 0.0128 µM) | relative viability (17-AAG + Vorinostat; first compound 0.04048 µM) | relative viability (17-AAG + Vorinostat; first compound 0.128 µM) | relative viability (17-AAG + Navitoclax; first compound 0.00128 µM) | relative viability (17-AAG + Navitoclax; first compound 0.004048 µM) | relative viability (17-AAG + Navitoclax; first compound 0.0128 µM) | relative viability (17-AAG + Navitoclax; first compound 0.04048 µM) | relative viability (17-AAG + Navitoclax; first compound 0.128 µM) | relative viability (17-AAG + Linsitinib; first compound 0.00128 µM) | relative viability (17-AAG + Linsitinib; first compound 0.004048 µM) | relative viability (17-AAG + Linsitinib; first compound 0.0128 µM) | relative viability (17-AAG + Linsitinib; first compound 0.04048 µM) | relative viability (17-AAG + Linsitinib; first compound 0.128 µM) | relative viability (17-AAG + Pemetrexed; first compound 0.00128 µM) | relative viability (17-AAG + Pemetrexed; first compound 0.004048 µM) | relative viability (17-AAG + Pemetrexed; first compound 0.0128 µM) | relative viability (17-AAG + Pemetrexed; first compound 0.04048 µM) | relative viability (17-AAG + Pemetrexed; first compound 0.128 µM)
1 | LK-2 | 0.323 | 0.445 | 0.178 | 0.174 | 0.236 | 1.11 | 0.97 | 0.619 | 0.285 | 0.171 | 0.575 | 0.463 | 0.615 | 0.479 | 0.136 | 0.266 | 0.292 | 0.211 | 0.101 | 0.0875
2 | LOU-NH91 | 0.86 | 0.735 | 0.547 | 0.482 | 0.336 | 0.608 | 0.525 | 0.32 | 0.332 | 0.297 | 0.874 | 0.678 | 0.587 | 0.478 | 0.311 | 0.392 | 0.371 | 0.304 | 0.302 | 0.371
3 | LU99A | 0.479 | 0.476 | 0.301 | 0.203 | 0.127 | 0.817 | 0.821 | 0.921 | 0.271 | 0.132 | 0.484 | 0.671 | 0.449 | 0.24 | 0.174 | 0.175 | 0.184 | 0.165 | 0.188 | 0.111
4 | LXF-289 | 0.765 | 0.759 | 0.402 | 0.214 | 0.115 | 0.995 | 0.907 | 0.891 | 0.536 | 0.184 | 0.964 | 0.954 | 0.924 | 0.52 | 0.179 | 0.889 | 0.874 | 0.575 | 0.201 | 0.0927
5 | NCI-H23 | 0.635 | 0.373 | 0.344 | 0.129 | 0.116 | 0.922 | 0.836 | 0.688 | 0.167 | 0.125 | 0.554 | 0.511 | 0.486 | 0.174 | 0.157 | 0.564 | 0.735 | 0.442 | 0.202 | 0.147
6 | NCI-H322M | 0.987 | 1.15 | 0.569 | 0.383 | 0.482 | 1.15 | 1.18 | 1.26 | 0.573 | 0.564 | 1.04 | 0.938 | 0.99 | 0.484 | 0.334 | 0.659 | 0.652 | 0.42 | 0.348 | 0.366
7 | NCI-H441 | 0.968 | 0.996 | 0.617 | 0.128 | 0.121 | 0.527 | 0.335 | 0.157 | 0.262 | 0.131 | 0.679 | 0.661 | 0.276 | 0.174 | 0.0829 | 0.255 | 0.28 | 0.284 | 0.106 | 0.125
8 | NCI-H460 | 0.733 | 0.41 | 0.0303 | 0.0238 | 0.0231 | 0.986 | 1.08 | 0.0303 | 0.0146 | 0.0215 | 0.771 | 0.0998 | 0.0141 | 0.0124 | 0.009 | 0.0582 | 0.0712 | 0.0849 | 0.0247 | 0.0362
9 | NCI-H520 | 0.75 | 0.662 | 0.433 | 0.174 | 0.181 | 1.09 | 0.836 | 1.03 | 0.19 | 0.161 | 0.987 | 0.856 | 0.728 | 0.144 | 0.122 | 0.604 | 0.7 | 0.261 | 0.127 | 0.129
10 | NCI-H596 | 0.654 | 0.582 | 0.692 | 0.576 | 0.323 | 1.02 | 0.91 | 0.908 | 0.834 | 0.518 | 1.12 | 0.93 | 0.943 | 0.82 | 0.783 | 0.558 | 0.542 | 0.508 | 0.505 | 0.337
11 | NCI-H647 | 0.584 | 0.533 | 0.132 | 0.116 | 0.0825 | 1.23 | 1.01 | 0.11 | 0.104 | 0.0816 | 1.16 | 0.596 | 0.18 | 0.118 | 0.074 | 0.203 | 0.179 | 0.102 | 0.0945 | 0.0923
12 | NCI-H838 | 0.759 | 0.779 | 0.213 | 0.168 | 0.169 | 1.15 | 1.12 | 1.07 | 0.165 | 0.166 | 0.942 | 0.97 | 0.756 | 0.17 | 0.142 | 0.258 | 0.313 | 0.208 | 0.133 | 0.154
13 | NCI-H1355 | 0.639 | 0.692 | 0.607 | 0.228 | 0.141 | 0.927 | 0.944 | 0.958 | 0.449 | 0.373 | 0.946 | 0.747 | 0.776 | 0.725 | 0.286 | 1 | 0.993 | 1.06 | 0.623 | 0.164
14 | NCI-H1395 | 0.626 | 0.607 | 0.415 | 0.366 | 0.368 | 1.03 | 1.29 | 0.698 | 0.458 | 0.344 | 1.12 | 1.1 | 0.705 | 0.469 | 0.383 | 0.86 | 0.938 | 0.494 | 0.349 | 0.354
15 | NCI-H1437 | 0.83 | 0.77 | 0.731 | 0.328 | 0.235 | 1.11 | 0.939 | 0.936 | 0.162 | 0.132 | 0.995 | 0.788 | 0.787 | 0.128 | 0.112 | 0.348 | 0.37 | 0.246 | 0.214 | 0.154
